Results as given in patent publication US20110086035A1, “IMMUNOTHERAPEUTIC METHODS AND MOLECULES” (priority 2008, published 2011).
Like-named read-outs stand apart in the source and are kept apart here.

Assays:
[1] = tested on: Asp f16-specific T cell lines of HLA-DRB1*04-positive donors; experiment: Restimulation of Asp f16-specific T cell lines with peptide-pulsed autologous monocytes, IFN-γ ELISA; format: cell-based, human; conditions: T cell lines of 3 HLA-DRB1*04-positive donors; monocytes pulsed with 1 μg/ml peptide; 24 h; FIG. 2B
Protocol: (§1) Antigen-specific T cell lines were generated by incubation of 1×10^7 whole PBMC per well in 6-well cell culture plates with 5 μg/ml recombinant protein or 1 μg/ml peptide antigen for 7 days. Lymphocyte cultures were supplemented with 5 U/ml IL-2 (Proleukin, Chiron, Ratingen, Germany) every other day and culture medium replenished as needed.
(§2) Autologous monocytes were isolated from whole PBMC by allowing cells to adhere to tissue culture dishes for 2 hours and subsequent extensive washing to remove non-adherent cells. For presentation of protein antigen, monocytes were cultured overnight in the presence of 5 μg/ml recombinant protein and harvested by mechanical abrasion the next day. For presentation of peptide antigen, monocytes were incubated overnight without antigen and mature cells harvested and pulsed with 1 μg/ml peptide antigen for 1 hour. Transduced autologous B cells were used as antigen-presenting cells (APC) after repeated culture on gamma-irradiated human CD40L-transfected feeder cells. […]
(§3) In order to define a common MHC class II epitope of the Asp f16 protein, lymphocyte donors were screened for the expression of the most abundant MHC class II allele HLA-DRB1*04 and Asp f16-specific T cell lines generated as described. […] All T cell cultures were then exposed to both peptide and recombinant protein for 24 hours and IFN-γ production quantified.

[2] = tested on: PBMC from HLA-DRB1*04-positive donors; experiment: Criss-cross restimulation of T cell lines generated with FHT peptide or recombinant Asp f16 protein, IFN-γ; format: cell-based, human; conditions: lines generated for one week with peptide or protein, exposed to both for 24 hours; FIG. 2C
Protocol: as §1, §2, §3

[3] = tested on: FHT-specific CD4+ T cell clones; experiment: Restimulation of FHT-specific CD4+ T cell clones with antigen-loaded dendritic cells, IFN-γ ELISA; format: cell-based, human
Protocol: For generation of antigen-specific T cell clones PBMC were stimulated repeatedly with 1 μg/ml FHT peptide once weekly for 4 weeks. Subsequently T cell clones were generated by limiting dilution in 96-well plates and expanded using the rapid expansion protocol as described by Beck et al^14. A CMVpp65-specific CD4^+ T cell clone used in control experiments was generated accordingly by limiting dilution of T cells stimulated with pp65 peptide antigen (kindly provided by Jan Diekmann).
(§4) Dendritic cells (DC) were generated from monocytes by addition of 500 U/ml GM-CSF (PromoCell, Heidelberg, Germany) and 700 U/ml IL-4 (R&D systems, Wiesbaden-Nordenstadt, Germany) to the culture medium. Immature dendritic cells were incubated for 24 hours with either live A. fumigatus or C. albicans conidia or fungus killed by treatment with ethanol 0, 4, 8 or 12 hours after germination and subsequently co-incubated, with Aspergillus peptide-specific T cell clones for further 24 hours. Dendritic cells used for presentation of protein or peptide antigen were induced to mature by addition of 25 ng/ml TNF-α, 5 ng/ml IL-1β, 10 ng/ml IL-6 (all R&D systems, Wiesbaden-Nordenstadt, Germany) and 1 μg/ml PGE2 (Pharmacia, Ratingen, Germany) prior to antigen-pulsing and co-incubation with antigen-specific T cells. […]

[4] = tested on: HLA-DRB1*04; experiment: Binding to HLA-DRB1*04; design: species or system human
Description: Whether or not a peptide binds to HLA-DRB1*04 may be determined using any method known in the art. A suitable method is shown in Example 1, with particular reference to FIG. 2B. One method is to introduce the peptide into PBMCs taken from an HLA-DRB1*04 human and determine whether an activating or proliferative response is obtained which is indicative of binding. Binding to HLA-DRB1*04 may also be assessed using the methods described in FIGS. 7 and 8.
(§5) Using limiting dilution, individual T cell clones were generated. Following expansion, the clones were either left un-stimulated, stimulated with FHT peptide or stimulated with HLA restricted FHT loaded LCL. IFNg production was then measured in a standard ELISA.

[5] = tested on: T cells specific for FHT; experiment: DRB1*0401/FHT multimer staining of FHT-expanded cell lines; format: cell-based, human; conditions: PBMC of 3 donors (two DRB1*0401, one DRB1*0408) expanded 14 or 21 days; FHT bound to multimer of DRB1*0401; FIG. 7
Description: FIG. 7. Cell lines expanded using the FHT peptide contain T cells that bind specifically to the FHT peptide in the context of DRB1*0401. PBMC from 3 different donors were expanded with the FHT peptide for 14 or 21 days (IVS—In vitro stimulation). Two of the donors were DRB1*0401 positive and one was DRB1*0408 positive.
PBMC from 3 different donors were expanded with the FHT peptide for 14 or 21 days (IVS—In vitro stimulation). Two of the donors were DRB1*0401 positive and one was DRB1*0408 positive.

[6] = tested on: T cell clones; experiment: IFNg ELISA of T cell clones stimulated with FHT peptide or FHT loaded HLA restricted LCL; format: cell-based, human; conditions: in all but one of the clones; FIG. 8
Protocol: FIG. 8. […] Using limiting dilution, individual T cell clones were generated. Following expansion, the clones were either left un-stimulated, stimulated with FHT peptide or stimulated with HLA restricted FHT loaded LCL. IFNg production was then measured in a standard ELISA.
as §5

[7] = tested on: A. fumigatus conidia; experiment: Confrontation assay: killing of A. fumigatus conidia by monocytes pre-incubated with T cell supernatant; format: cell-based, Aspergillus fumigatus; conditions: monocytes pre-incubated with supernatant of T cell clones activated with FHT peptide-pulsed APC; 3 hours; FIG. 5
Protocol: as §4, with “cells. In one experiment the antigen-presenting dendritic cells fed with live Aspergillus conidia were incubated with either 25 μg/ml control antibody or MHC class II blocking antibody (No 555556, BD Biosciences, Heidelberg, Germany) for 1 hour prior to addition of the T cells. Antibody also remained present during the 24 hours co-incubation of T cells with antigen-presenting DC.” for “cells.”
Killing of A. fumigatus conidia by monocytes was quantified using confrontation assays. […] Each experimental setting was determined in quadruple. […] Colonies were quantified after incubation at 37° C. over night. […]

[8] = tested on: PBMC from healthy donors; experiment: Restimulation of T cell lines generated with recombinant protein, IFN-γ ELISA; format: cell-based, human; conditions: PBMC of 4 healthy donors; significant = at least 50 pg/ml and/or more than 5-fold increase over unstimulated; FIG. 1A/1B
Protocol: Blood was obtained from HLA-DRB1*-typed healthy donors after informed consent. Peripheral blood mononuclear cells (PBMC) were isolated via centrifugation in Biocoll Separating Solution (Biochrom, Berlin, Germany) and either used directly after preparation or cryopreserved for later use. Cells were cultured in RPMI 1640 with L-Glutamine (Invitrogen, Karlsruhe, Germany), supplemented with 10% heat-inactivated, pooled human serum and 100 U/ml Penicillin-Streptomycin (Invitrogen, Karlsruhe, Germany).
as §1
Autologous monocytes were isolated from whole PBMC by allowing cells to adhere to tissue culture dishes for 2 hours and subsequent extensive washing to remove non-adherent cells. […]
PBMC from 4 different healthy donors, were stimulated for 7 days with purified recombinant Asp f1-H136L or Asp f16 protein. The generated T cell lines were then re-exposed for 24 hours to both proteins and the amount of secreted IFN-γ quantified in the supernatant by IFN-γ ELISA. […]

[9] = tested on: phoenix GALV; format: cell-based, human; conditions: point mutation His136Leu versus Asp f1
Description: The gene encoding the A. fumigatus Asp f16 protein (NCBI accession number AY169706) was cloned into the eukaryotic expression vector pcDNA3.1-TOPO (Invitrogen, Karlsruhe, Germany) with N- and C-terminal FLAG®-Tag (Sigma-Aldrich, Muenchen, Germany). The gene was amplified from cDNA kindly provided by Utz Reichard (University of Goettingen, Germany). The gene encoding Asp f1 protein (NCBI accession number M83781) was cloned accordingly, omitting the leader sequence (cDNA kindly provided by Prof. Dr. Stefan Stevanović, University of Tuebingen, Germany).
pcDNA3.1-aspf16-FLAG and pcDNA3.1-aspf1-H136L-FLAG expression vector was introduced into the transgenic human cell line phoenix GALV^20 via calcium phosphate transfection. Parental as well as transfected producer cells were cultivated in DMEM medium (Invitrogen, Karlsruhe, Germany) supplemented with 10% heat-inactivated fetal calf serum (FCS, Biochrom, Berlin, Germany) and 100 U/ml Penicillin-Streptomycin (Invitrogen, Karlsruhe, Germany). 24 hours after transfection transgene expression from the CMV promoter of the expression vector was enhanced by addition of 1 mM sodium butyrate (Sigma-Aldrich, Muenchen, Germany) to the culture medium^21.
Recombinant Asp f1 and Asp f16 proteins were produced in a eukaryotic expression system and purified by standard methods via introduced FLAG-Tags. […]

Molecule | IFN-γ production in response to peptide [1] | specific cytokine (IFN-γ) production after restimulation with peptide and recombinant protein [2] | IFN-γ production of FHT-specific CD4+ T cell clones in response to DC ([3]; autologous DC pulsed with synthetic peptide, 24 h, FIG. 3A) | binding to HLA-DRB1*04 [4] | binding to HLA-DRB1*04 ([4]; listed as FHT) | detection of FHT specific T cells by multimer staining [5] | IFNg production with FHT loaded HLA restricted LCL compared to peptide alone [6] | fungal survival after phagocytosis by monocytes [7] | IFN-γ after one week of stimulation and 24 h re-exposure to recombinant protein [8] | cross-reactivity of Asp f16-specific CD4+ TH1 T cell clones to pulsed APC ([3]; APC pulsed with purified protein) | cytotoxicity in the producing cell line [9]
FHTYTIDWTKDAVTW [FHT peptide] | abundant production of IFN-γ | specific cytokine production could be detected | high amounts of IFN-γ | has been shown to bind to HLA-DRB1*04 | specifically binds HLADRB1*04 | can be detected by DRB1*0401/FHT multimer staining | greatly increased specific cytokine production | significantly reduce fungal survival | – | – | –
recombinant Asp f1-H136L protein: FLAG-tagged recombinant A. fumigatus Asp f1 ribotoxin with point mutation His136Leu, without leader sequence (protein, UniProt P67875 28-176, looked up, variant H136L, FLAG tag) Ribonuclease mitogillin: ATWTCINQQLNPKTNKWEDKRLLYSQAKAESNSHHAPLSDGKTGSSYPHWFTNGYDGNGKLIKGRTPIKFGKADCDRPPKHSQNGMGKDDHYLLEFPTFPDGHDYKFDSKKPKEDPGPARVIYTYPNKVFCGIVALQRGNQGDLRLCSH | – | – | – | – | – | – | – | – | only one of 4 donors responded robustly | not cross-reactive | nearly abolished cytotoxicity
